Measurements published in patent US6355799B1, “Substituted benzene compounds, process for their preparation, and herbicidal and defoliant compositions containing them” (ISK Americas Incorporated, priority 1997, dated 2002).

How the values were obtained:
Format in all cases: in vivo
[1] = test system: redroot pigweed (Amaranthus retroflexus, AMARE); test: Pre-emerge test, greenhouse herbicide activity screening; details: pre-emerge, 14 days after application, scale 0-100
Text: (§1) A standard greenhouse herbicide activity screening system was used to evaluate the herbicidal efficacy and crop safety of these test compounds. Seven broadleaf weed species including redroot pigweed (Amaranthus retroflexus, AMARE, velvetleaf (Abutilon theophrasti, ABUTH), sicklepod (Cassia obtusifolia, CASOB), ivyleaf morningglory (Ipomoea hederacea, IPOHE), lambsquarters (Chenopodium album, CHEAL), common ragweed (Ambrosia artemisizfolia L., AMBEL), and cocklebur (Xanthium strumarium, XANST) were used as test species. Four grass weed species including green foxtail (Setaria viridis, SETVI), barnyardgrass (Echinochloa crus-galli, ECHCG), johnsongrass (Sorghum halepense, SORHA), and large crabgrass (Digitaria sanguinalis, DIGSA) were also used. In addition, three crop species, field corn (Zea mays L., var. Dekalb 535, CORN), soybean (Glycine max L., var. Pella 86, SOY), and is upland rice (Oryza sp., var. Tebonnet, RICE) were included.
(§2) All plants were grown in 10 cm square plastic pots which were filled with a sandy loam soil mix. For pre-emerge tests, seeds were planted one day prior to application of the test compounds. For post-emerge tests, seeds were planted 8-21 days prior to the test to allow emergence and good foliage development prior to application of the test substances. At the time of the post-emerge application, plants of all species were usually at the 2-3 leaf stage of development.
All test compounds Were dissolved in acetone and applied to the test units in a volume of 187 l /ha. […] Plants were arranged on a shelf so that the top of the canopy (post-emerge) or top of the soil surface (pre-emerge) was 40-45 cm below the nozzle. Pressurized air was used to force the test solution through the nozzle as it was mechanically advanced (via electrically driven chain drive) over the top of all test plants/pots. This application simulates a typical commercial field herbicide application.
(§3) In the post-emerge test, a commercial non-ionic surfactant was also included (0.25% v/v) to enhance wetting of the leaf surfaces of target plants. Immediately after application, test units of the pre-emerge applications were watered at the soil surface to incorporate the test materials. Subsequently, these test units were bottom-watered. Post-emerge test units were always bottom-watered.
(§4) At 14 days after application of the test materials, phytotoxicity ratings were recorded. A rating scale of 0-100 was used as previously described in Research Methods in Weed Science, 2nd edition, B. Truelove, Ed., Southern Weed Science Society, Auburn University, Auburn, Ala. 1977. Briefly, “0” corresponds to no damage and “100” corresponds to complete death of all plants in the test unit. This scale was used both to determine efficacy against weed species and damage to crop species. Herbicide activity data for various compounds of this invention, which are shown by compound No. in Tables 1-8, are shown in Tables 11 and 12.

[2] = test system: ivyleaf morningglory (Ipomoea hederacea, IPOHE); test: Post-emerge test, greenhouse herbicide activity screening; details: post-emerge, 14 days after application, rating scale 0-100
Text: as §1, §2
(§5) All test compounds Were dissolved in acetone and applied to the test units in a volume of 187 l /ha. Test materials were applied at rates ranging from 15 g ai/ha to 1000 g ai/ha using a track sprayer equipped with a TJ8001E even flow flat fan spray nozzle. Plants were arranged on a shelf so that the top of the canopy (post-emerge) or top of the soil surface (pre-emerge) was 40-45 cm below the nozzle. Pressurized air was used to force the test solution through the nozzle as it was mechanically advanced (via electrically driven chain drive) over the top of all test plants/pots. This application simulates a typical commercial field herbicide application.
as §3, §4

[3] = test system: velvetleaf (Abutilon theophrasti, ABUTH); test: as above; details: post-emerge, 14 days after application, rating scale 0-100
Text: as §1, §2, §5, §3, §4

[4] = test system: sicklepod (Cassia obtusifolia, CASOB); test: as above; details: post-emerge, 14 days after application, rating scale 0-100
Text: as §1, §2, §5, §3, §4

[5] = test system: redroot pigweed (Amaranthus retroflexus, AMARE); test: as above; details: post-emerge, 14 days after application, rating scale 0-100
Text: as §1, §2, §5, §3, §4

[6] = test system: lambsquarters (Chenopodium album, CHEAL); test: as above; details: post-emerge, 14 days after application, rating scale 0-100
Text: as §1, §2, §5, §3, §4

[7] = test system: large crabgrass (Digitaria sanguinalis, DIGSA); test: as above; details: post-emerge, 14 days after application, rating scale 0-100
Text: as §1, §2, §5, §3, §4

[8] = test system: barnyardgrass (Echinochloa crus-galli, ECHCG); test: as above; details: post-emerge, 14 days after application, rating scale 0-100
Text: as §1, §2, §5, §3, §4

[9] = test system: green foxtail (Setaria viridis, SETVI); test: as above; details: post-emerge, 14 days after application, rating scale 0-100
Text: as §1, §2, §5, §3, §4

[10] = test system: field corn (Zea mays L., var. Dekalb 535, CORN); test: Pre-emerge test, crop safety; details: pre-emerge, 14 days after application, scale 0-100
Text: as §1, §2, §5, §3, §4

[11] = test system: upland rice (Oryza sp., var. Tebonnet, RICE); test: Pre-emerge test, crop safety; details: pre-emerge, 14 days after application, scale 0-100
Text: as §1, §2, §5, §3, §4

[12] = test system: ivyleaf morningglory (Ipomoea hederacea, IPOHE); test: Pre-emerge test, greenhouse herbicide activity screening; details: pre-emerge, 14 days after application, scale 0-100
Text: as §1, §2, §5, §3, §4

[13] = test system: velvetleaf (Abutilon theophrasti, ABUTH); test: as above; details: pre-emerge, 14 days after application, scale 0-100
Text: as §1, §2, §5, §3, §4

[14] = test system: sicklepod (Cassia obtusifolia, CASOB); test: as above; details: pre-emerge, 14 days after application, scale 0-100
Text: as §1, §2, §5, §3, §4

[15] = test system: lambsquarters (Chenopodium album, CHEAL); test: as above; details: pre-emerge, 14 days after application, scale 0-100
Text: as §1, §2, §5, §3, §4

[16] = test system: large crabgrass (Digitaria sanguinalis, DIGSA); test: as above; details: pre-emerge, 14 days after application, scale 0-100
Text: as §1, §2, §5, §3, §4

[17] = test system: barnyardgrass (Echinochloa crus-galli, ECHCG); test: as above; details: pre-emerge, 14 days after application, scale 0-100
Text: as §1, §2, §5, §3, §4

[18] = test system: green foxtail (Setaria viridis, SETVI); test: as above; details: pre-emerge, 14 days after application, scale 0-100
Text: as §1, §2, §5, §3, §4

[19] = test system: field corn (Zea mays L., var. Dekalb 535, CORN); test: Post-emerge test, crop safety; details: post-emerge, 14 days after application, rating scale 0-100
Text: as §1, §2, §5, §3, §4

[20] = test system: upland rice (Oryza sp., var. Tebonnet, RICE); test: Post-emerge test, crop safety; details: post-emerge, 14 days after application, rating scale 0-100
Text: as §1, §2, §5, §3, §4

COc1c(C#N)cc(F)c(-n2c(=O)cc(C(F)(F)F)n(C)c2=O)c1NC(=O)c1ccc2ccccc2c1 [2-181]
20: CORN phytotoxicity rating (crop damage) ([19]; 250 g ai/ha)
80: SETVI phytotoxicity rating ([9]; 250 g ai/ha) | phytotoxicity rating RICE (crop damage) ([11]; 250 g ai/ha) | phytotoxicity rating IPOHE ([12]; 250 g ai/ha) | phytotoxicity rating ECHCG ([17]; 250 g ai/ha)
30: DIGSA phytotoxicity rating ([7]; 63 g ai/ha) | phytotoxicity rating IPOHE ([12]; 63 g ai/ha)
60: ECHCG phytotoxicity rating ([8]; 250 g ai/ha) | phytotoxicity rating DIGSA ([16]; 63 g ai/ha) | RICE phytotoxicity rating (crop damage) ([20]; 250 g ai/ha)
100: phytotoxicity rating AMARE ([1]; 63 g ai/ha) | phytotoxicity rating AMARE ([1]; 250 g ai/ha) | IPOHE phytotoxicity rating ([2]; 63 g ai/ha) | IPOHE phytotoxicity rating ([2]; 250 g ai/ha) | ABUTH phytotoxicity rating ([3]; 63 g ai/ha) | ABUTH phytotoxicity rating ([3]; 250 g ai/ha) | CASOB phytotoxicity rating ([4]; 63 g ai/ha) | CASOB phytotoxicity rating ([4]; 250 g ai/ha) | AMARE phytotoxicity rating ([5]; 63 g ai/ha) | AMARE phytotoxicity rating ([5]; 250 g ai/ha) | CHEAL phytotoxicity rating ([6]; 63 g ai/ha) | CHEAL phytotoxicity rating ([6]; 250 g ai/ha) | phytotoxicity rating ABUTH ([13]; 63 g ai/ha) | phytotoxicity rating ABUTH ([13]; 250 g ai/ha) | phytotoxicity rating CHEAL ([15]; 63 g ai/ha) | phytotoxicity rating CHEAL ([15]; 250 g ai/ha)
0: phytotoxicity rating CORN (crop damage) ([10]; 63 g ai/ha)
10: phytotoxicity rating CASOB ([14]; 63 g ai/ha) | CORN phytotoxicity rating (crop damage) ([19]; 63 g ai/ha)
70: DIGSA phytotoxicity rating ([7]; 250 g ai/ha) | SETVI phytotoxicity rating ([9]; 63 g ai/ha) | phytotoxicity rating SETVI ([18]; 63 g ai/ha)
5: phytotoxicity rating CORN (crop damage) ([10]; 250 g ai/ha)
40: ECHCG phytotoxicity rating ([8]; 63 g ai/ha) | phytotoxicity rating ECHCG ([17]; 63 g ai/ha)
15: phytotoxicity rating RICE (crop damage) ([11]; 63 g ai/ha) | RICE phytotoxicity rating (crop damage) ([20]; 63 g ai/ha)
95: phytotoxicity rating SETVI ([18]; 250 g ai/ha)
90: phytotoxicity rating CASOB ([14]; 250 g ai/ha) | phytotoxicity rating DIGSA ([16]; 250 g ai/ha)

C=Cc1ccc(C(=O)Nc2c(OC)c(Br)cc(F)c2-n2c(=O)cc(C(F)(F)F)n(C)c2=O)cc1 [2-182]
20: DIGSA phytotoxicity rating ([7]; 250 g ai/ha)
100: phytotoxicity rating AMARE ([1]; 250 g ai/ha) | IPOHE phytotoxicity rating ([2]; 63 g ai/ha) | IPOHE phytotoxicity rating ([2]; 250 g ai/ha) | ABUTH phytotoxicity rating ([3]; 63 g ai/ha) | ABUTH phytotoxicity rating ([3]; 250 g ai/ha) | CHEAL phytotoxicity rating ([6]; 250 g ai/ha) | phytotoxicity rating IPOHE ([12]; 250 g ai/ha) | phytotoxicity rating ABUTH ([13]; 63 g ai/ha) | phytotoxicity rating ABUTH ([13]; 250 g ai/ha) | phytotoxicity rating CHEAL ([15]; 63 g ai/ha) | phytotoxicity rating CHEAL ([15]; 250 g ai/ha)
10: SETVI phytotoxicity rating ([9]; 63 g ai/ha) | phytotoxicity rating CORN (crop damage) ([10]; 250 g ai/ha) | phytotoxicity rating CASOB ([14]; 63 g ai/ha) | phytotoxicity rating ECHCG ([17]; 63 g ai/ha)
70: phytotoxicity rating RICE (crop damage) ([11]; 250 g ai/ha) | CORN phytotoxicity rating (crop damage) ([19]; 250 g ai/ha)
95: CASOB phytotoxicity rating ([4]; 250 g ai/ha) | AMARE phytotoxicity rating ([5]; 250 g ai/ha) | CHEAL phytotoxicity rating ([6]; 63 g ai/ha)
60: CASOB phytotoxicity rating ([4]; 63 g ai/ha) | phytotoxicity rating CASOB ([14]; 250 g ai/ha) | phytotoxicity rating ECHCG ([17]; 250 g ai/ha)
30: ECHCG phytotoxicity rating ([8]; 250 g ai/ha) | phytotoxicity rating DIGSA ([16]; 63 g ai/ha) | phytotoxicity rating SETVI ([18]; 63 g ai/ha)
80: SETVI phytotoxicity rating ([9]; 250 g ai/ha)
90: phytotoxicity rating AMARE ([1]; 63 g ai/ha) | AMARE phytotoxicity rating ([5]; 63 g ai/ha) | phytotoxicity rating DIGSA ([16]; 250 g ai/ha) | phytotoxicity rating SETVI ([18]; 250 g ai/ha)
15: phytotoxicity rating RICE (crop damage) ([11]; 63 g ai/ha)
5: CORN phytotoxicity rating (crop damage) ([19]; 63 g ai/ha)
0: DIGSA phytotoxicity rating ([7]; 63 g ai/ha) | ECHCG phytotoxicity rating ([8]; 63 g ai/ha) | phytotoxicity rating CORN (crop damage) ([10]; 63 g ai/ha) | phytotoxicity rating IPOHE ([12]; 63 g ai/ha) | RICE phytotoxicity rating (crop damage) ([20]; 63 g ai/ha)
